Patent US12171732B2, “Compositions and use of N-chlorotaurine for treatment and prevention of respiratory infections” (priority 2021, dated 2024)
Like-named read-outs stand apart in the source and are kept apart here.

Key:
SARS-CoV-2 = type: in vivo, human; conditions: Example 3 patient, Day 5, first 1% NCT nasal spray, 2 puffs in each nostril
[1] = test system: SARS-CoV-2 B.1.351 (Beta); type: cell-based; conditions: 1% NCT, 37° C.
[2] = test system: SARS-CoV-2 B.1.1.7 (Alpha); type: cell-based; conditions: 1% NCT, 37° C.

In the case of `O=S(=O)(O)CCNCl` [NCT, N-chlorotaurine], the “time until nasal passages cleared and nasal secretion dried up” value (SARS-CoV-2) is reported as at most 30 min, the “reduction of infected cells” value ([1]; after 1 min (not significant, p=0.313)) is reported as 0-48% and the “reduction of infected cells” value ([1]; after 5 min) is reported as 54-72%. The “reduction of infected cells” value ([1]; after 10 min) was 82-97%, the “reduction of infected cells” value ([1]; after 20 min) was 99-100% and the “reduction of infected cells” value ([1]; after 30 min) was 100%. The “reduction of infected cells” value ([2]; after 1 min) was 42-54%, the “reduction of infected cells” value ([2]; after 5 min) was 50-71% and the “reduction of infected cells” value ([2]; after 10 min) was 62-99%. The “reduction of infected cells” value ([2]; after 20 min) was 99-100% and the “reduction of infected cells” value ([2]; after 30 min) was 100%.
